“Also recorded” adds a separate entry of the source.
Tests used:
[1] = system: 5LO interaction with COX2 / cPLA2; assay: co-immunoprecipitation of 5LO with COX2 and cPLA2 in rat hearts; type: in vivo
Description: Rats received: 1) PIO (10 mg/kg/d); 2) ATV (10 mg/kg/d); 3) PIO (10 mg/kg/d)+H89 (20 mg/kg); 4) ATV (10 mg/kg/d)+H89 (20 mg/kg); 5) H89 (20 mg/kg) or 6) water alone (control). PIO and ATV were suspended in water and administered by gastric gavage once daily for 3 days; H-89 was dissolved in DMSO (final concentration 5% v/v) and injected intraperitoneally on the third day. Rats in groups 5 and 6 received water by gastric gavage once daily for 3 days. Rats in groups 1, 2 and 6 received intraperitoneal inkection of DMSO 5%. Sixteen hours after the injection, rats were euthanized and the hearts explanted for further analyses. In another experiment, rats received 3-day pretreatment with: 1) water (sham); 2) PIO (10 mg/kg/d); 3) ATV (10 mg/kg/d); 4) PIO (10 mg/kg/d)+ATV (10 mg/kg/d); or 5) LPS (10 mg/kg).
For co-immunoprecipitation, myocardial cytosolic, membranous and nuclear fractions (500 μg) were incubated with anti-5LO antibodies for 4 h followed by overnight incubation at 4° C. with Protein-A-Agarose. The agarose beads were collected by centrifugation and SDS/PAGE Western immunoblotting was performed with the supernatant fraction. The anti-5LO precipitates were subjected to immunoblotting with anti-COX2 or anti-cPLA2 antibodies.

5LO (P-5LO) = assay: immunoblotting of 5LO and P-5LO in adult rat cardiac myocyte cultures; type: cell-based; details: H-89 0.1 μM with PIO+ATV
Description: (§1) Cardiac myocytes were isolated from adult Sprague-Dawley rats (250-300 g, male). Animals were heparinized (1,000-2,000 units i.p.) 5 min before being anesthetized with ketamine (100 mg/kg) and xylazine (10 mg/kg), and the hearts were removed and placed in ice-cold heart media solution (in mmol/l: 112 NaCl, 5.4 KCl, 1 MgCl2, 9 NaH2PO4, and 11.1 D-glucose; supplemented with 10 HEPES, 30 taurine, 2 DL-carnitine, and 2 creatine, pH. 7.4). The hearts were perfused retrogradely in a Langendorff apparatus with Ca^2+-free heart media for 5 min at 5 ml/min at 37° C., followed by perfusion with Ca^2+-free heart media containing collagenase II, 210 U/mg (Worthington, Lakewood, N.J.) for 20 min. […]
The hearts were rapidly explanted, rinsed in cold PBS (pH 7.4), containing 0.16 mg/ml heparin to remove red blood cells and clots, frozen in liquid nitrogen and stored at −70° C. […] The supernatant was collected and the total protein concentration was determined using the Lowry protein assay. […] The protein samples with loading buffer were run in 4-20% Tri-HCl Ready Gel at a 100V for 2 h until the desired molecular weight bands were separated. […] The protein signals were quantified by an image-scanning-densitometer and the strength of each protein signal was normalized to the corresponding b-actin stain signal. Data are expressed as a ratio between the protein and the corresponding b-actin signal density.

LTB4 = LTB4 levels in adult rat cardiac myocytes (ELISA); type: cell-based; details: PIO 10 μM, ATV 10 μM, H-89 0.1 μM, 12 hours
Description: Cardiac myocytes were isolated from adult Sprague-Dawley rats (250-300 g, male). Animals were heparinized (1,000-2,000 units i.p.) 5 min before being anesthetized with ketamine (100 mg/kg) and xylazine (10 mg/kg), and the hearts were removed and placed in ice-cold heart media solution (in mmol/l: 112 NaCl, 5.4 KCl, 1 MgCl2, 9 NaH2PO4, and 11.1 D-glucose; supplemented with 10 HEPES, 30 taurine, 2 DL-carnitine, and 2 creatine, pH. 7.4). The hearts were perfused retrogradely in a Langendorff apparatus with Ca^2+-free heart media for 5 min at 5 ml/min at 37° C., followed by perfusion with Ca^2+-free heart media containing collagenase II, 210 U/mg (Worthington, Lakewood, N.J.) for 20 min. After perfusion, both ventricles were removed from the heart and minced in collagenase II-containing heart media for 10-15 min. The cell solution was then washed several times to remove collagenase II and reexposed to 1.2 mM Ca2^+ over 25 min to produce Ca2^+-tolerant cardiac myocytes. Myocytes were then plated in 4% FBS on laminin (2 μg/cm^2)-coated plates for 1 h and incubated at 37° C. in 5% CO2 for 12-24 h before experiments (21). Cells were incubated with 1) vehicle (0.07% ethanol); 2) PIO (10 μM)+ATV (10 μM); 3) H-89 (0.1 μM); or 4) PIO+ATV+H-89 for 12 hours. The supernatants were collected directly for LTB4 analyses by ELISA and the cells were harvested for immunoblotting. […]

cPLA2 = assay: immunofluorescence of cPLA2 in adult rat cardiac myocytes; type: cell-based; details: PIO 10 μM, ATV 10 μM, H-89 0.1 μM, 12 hours
Description: as §1, with “min. After perfusion, both ventricles were removed from the heart and minced in collagenase II-containing heart media for 10-15 min. The cell solution was then washed several times to remove collagenase II and reexposed to 1.2 mM Ca2^+ over 25 min to produce Ca2^+-tolerant cardiac myocytes.” for “min.”
Immunofluorescent labeling was performed on paraffin sections (5-μm) of 4% formaldehyde-fixed rat cardiac tissue, as described previously (22). […] All the slides were viewed under an Olympus BX51 microscope [images recorded by a DP70 Digital camera (Olympus Optical Co., Ltd., Tokyo, Japan)] or confocal microscope (Bio-Rad 2100 (Hercules, Calif.).

CC(C)c1c(C(=O)Nc2ccccc2)c(-c2ccccc2)c(-c2ccc(F)cc2)n1CCC(O)CC(O)CC(=O)O (centres unmarked) [ATV, 7-[2-(4-fluorophenyl)-5-(1-methylethyl)-3-phenyl-4-(phenylcarbamoyl)-1H-pyrrol-1-yl]-3,5-dihydroxy-heptanoic acid]
fraction in which the co-immunoprecipitation with 5LO occurred ([1]; cytosolic and membranous fractions): in the cytosolic, but not the membranous fraction; also recorded: only in the cytosolic fraction | co-immunoprecipitation of COX2 or cPLA2 with 5LO ([1]; whole cell lysate): 5LO precipitated with COX2 and COX2, but not cPLA2, precipitated with 5LO

O=S(=O)(NCCNC/C=C/c1ccc(Br)cc1)c1cccc2cnccc12 [H-89]
effect on the 5LO phosphorylation by PIO+ATV (5LO (P-5LO)): almost completely blocked | LTB4 levels (LTB4): no significant effect | cPLA2 expression (cPLA2): no effect

From US20090042849A1, “Phosphorylation of 5-lipoxygenase at ser523 and uses thereof” (priority 2006, published 2009)
